Test: Safety (adverse events, NCI CTCAE v4.0), expansion phase
Settings: expansion QW 40 mg
Source text: Based on data collected during dose-escalation, the expansion phase evaluated the safety and efficacy of QD and QW sapanisertib in patients with RCC, endometrial or bladder cancer. Patients could continue receiving sapanisertib for ≤1 year (or beyond, if the investigator and sponsor agreed) in the absence of disease progression or unacceptable toxicity.
Patients who received ≥1 dose of sapanisertib were included in the safety population. The response-evaluable population included patients who received ≥1 dose of sapanisertib, had measurable disease at baseline, and had ≥1 postbaseline assessment. […] Adverse events (AEs) were assessed using the National Cancer Institute Common Terminology Criteria for Adverse Events, v4.0. Patients were provided with a home blood-glucose meter to monitor their fasting predose blood-glucose measurements to assess hyperglycaemia as an on-target AE and PD marker.

CC(C)n1nc(-c2ccc3oc(N)nc3c2)c2c(N)ncnc21 [Sapanisertib]
Abdominal pain, all-grade AE of any cause: 4 (15) n (%) | Abdominal pain, grade ≥3 AE of any cause: 0 (0) n (%) | Acute kidney injury, grade ≥3 AE of any cause: 2 (8) n (%) | Acute kidney injury, treatment-related AE: 4 (15) n (%) | Anaemia, all-grade AE of any cause: 11 (42) n (%) | Anaemia, grade ≥3 AE of any cause: 3 (12) n (%) | Anaemia, treatment-related AE: 8 (31) n (%) | Any AE: 26 (100) n (%) | Any AE resulting in dose modification/interruption: 20 (77) n (%) | Any AE resulting in treatment discontinuation: 2 (8) n (%) | Any SAE: 9 (35) n (%) | Any grade ≥3 AE: 19 (73) n (%) | Any treatment-related AE: 26 (100) n (%) | Any treatment-related SAE: 4 (15) n (%) | Any treatment-related grade ≥3 AE: 14 (54) n (%) | Arthralgia, all-grade AE of any cause: 7 (27) n (%) | Asthenia, grade ≥3 AE of any cause: 2 (8) n (%) | Asthenia, treatment-related AE: 4 (15) n (%) | Asthenia, treatment-related grade ≥3 AE: 1 (4) n (%) | Blood creatinine increased, all-grade AE of any cause: 5 (19) n (%) | Blood creatinine increased, treatment-related AE: 4 (15) n (%) | Constipation, all-grade AE of any cause: 10 (38) n (%) | Constipation, grade ≥3 AE of any cause: 1 (4) n (%) | Cough, all-grade AE of any cause: 8 (31) n (%) | Decreased appetite, all-grade AE of any cause: 14 (54) n (%) | Decreased appetite, treatment-related AE: 14 (54) n (%) | Dehydration, all-grade AE of any cause: 7 (27) n (%) | Dehydration, grade ≥3 AE of any cause: 3 (12) n (%) | Dehydration, treatment-related AE: 5 (19) n (%) | Dehydration, treatment-related grade ≥3 AE: 2 (8) n (%) | Depression, all-grade AE of any cause: 3 (12) n (%) | Diarrhoea, all-grade AE of any cause: 13 (50) n (%) | Diarrhoea, grade ≥3 AE of any cause: 1 (4) n (%) | Diarrhoea, treatment-related AE: 13 (50) n (%) | Diarrhoea, treatment-related grade ≥3 AE: 1 (4) n (%) | Dizziness, all-grade AE of any cause: 3 (12) n (%) | Dry mouth, all-grade AE of any cause: 7 (27) n (%) | Dry mouth, treatment-related AE: 6 (23) n (%) | Dysgeusia, all-grade AE of any cause: 3 (12) n (%) | Dysgeusia, treatment-related AE: 3 (12) n (%) | Dyspepsia, treatment-related AE: 2 (8) n (%) | Dyspnoea, grade ≥3 AE of any cause: 0 (0) n (%) | Fatigue, all-grade AE of any cause: 24 (92) n (%) | Fatigue, grade ≥3 AE of any cause: 4 (15) n (%) | Fatigue, treatment-related AE: 23 (88) n (%) | Fatigue, treatment-related grade ≥3 AE: 4 (15) n (%) | Haematuria, grade ≥3 AE of any cause: 0 (0) n (%) | Headache, all-grade AE of any cause: 6 (23) n (%) | Headache, treatment-related AE: 4 (15) n (%) | Hypercholesterolemia, treatment-related AE: 0 (0) n (%) | Hyperglycaemia, all-grade AE of any cause: 20 (77) n (%) | Hyperglycaemia, grade ≥3 AE of any cause: 6 (23) n (%) | Hyperglycaemia, treatment-related AE: 20 (77) n (%) | Hyperglycaemia, treatment-related grade ≥3 AE: 6 (23) n (%) | Hyperkalaemia, grade ≥3 AE of any cause: 0 (0) n (%) | Hypertension, grade ≥3 AE of any cause: 1 (4) n (%) | Hypokalaemia, grade ≥3 AE of any cause: 0 (0) n (%) | Hyponatremia, grade ≥3 AE of any cause: 1 (4) n (%) | Hypophosphatemia, grade ≥3 AE of any cause: 2 (8) n (%) | Hypophosphatemia, treatment-related AE: 4 (15) n (%) | Hypophosphatemia, treatment-related grade ≥3 AE: 2 (8) n (%) | Lymphopenia, grade ≥3 AE of any cause: 1 (4) n (%) | Lymphopenia, treatment-related grade ≥3 AE: 0 (0) n (%) | Musculoskeletal chest pain, grade ≥3 AE of any cause: 1 (4) n (%) | Nausea, all-grade AE of any cause: 20 (77) n (%) | Nausea, grade ≥3 AE of any cause: 2 (8) n (%) | Nausea, treatment-related AE: 20 (77) n (%) | Nausea, treatment-related grade ≥3 AE: 2 (8) n (%) | Oedema peripheral, all-grade AE of any cause: 5 (19) n (%) | On-study deaths: 1 (4) n (%) | Oropharyngeal pain, all-grade AE of any cause: 9 (35) n (%) | Pain in extremity, grade ≥3 AE of any cause: 1 (4) n (%) | Pneumonia, grade ≥3 AE of any cause: 0 (0) n (%) | Pruritus generalised, all-grade AE of any cause: 3 (12) n (%) | Pruritus generalised, treatment-related AE: 2 (8) n (%) | Pruritus generalised, treatment-related grade ≥3 AE: 0 (0) n (%) | Pruritus, all-grade AE of any cause: 4 (15) n (%) | Pruritus, treatment-related AE: 3 (12) n (%) | Pyrexia, all-grade AE of any cause: 5 (19) n (%) | Rash maculo-papular, all-grade AE of any cause: 4 (15) n (%) | Rash maculo-papular, grade ≥3 AE of any cause: 1 (4) n (%) | Rash maculo-papular, treatment-related AE: 1 (4) n (%) | Rash maculo-papular, treatment-related grade ≥3 AE: 0 (0) n (%) | Rash, treatment-related AE: 1 (4) n (%) | Rash, treatment-related grade ≥3 AE: 0 (0) n (%) | Sepsis, grade ≥3 AE of any cause: 0 (0) n (%) | Stomatitis (includes oropharyngeal pain and mucosal inflammation), treatment-related AE: 10 (38) n (%) | Stomatitis, all-grade AE of any cause: 12 (46) n (%) | Stomatitis, grade ≥3 AE of any cause: 1 (4) n (%) | Stomatitis, treatment-related grade ≥3 AE: 1 (4) n (%) | Thrombocytopenia, grade ≥3 AE of any cause: 1 (4) n (%) | Thrombocytopenia, treatment-related grade ≥3 AE: 1 (4) n (%) | Transitional cell carcinoma, grade ≥3 AE of any cause: 1 (4) n (%) | Urinary tract infection, all-grade AE of any cause: 8 (31) n (%) | Vomiting, all-grade AE of any cause: 20 (77) n (%) | Vomiting, grade ≥3 AE of any cause: 1 (4) n (%) | Vomiting, treatment-related AE: 19 (73) n (%) | Weight decreased, all-grade AE of any cause: 7 (27) n (%) | Weight decreased, treatment-related AE: 4 (15) n (%)

From publication PMC7686313, “Phase 1 study of mTORC1/2 inhibitor sapanisertib (TAK-228) in advanced solid tumours, with an expansion phase in renal, endometrial or bladder cancer” (British Journal of Cancer, 2020)
